Results: patent US20040024024A1, “Aromatic sulfone hydroxamates and their use as protease inhibitors” (priority 2001, published 2004)

Key:
Assay type in all cases: biochemical
[1] = biological target: T1, Human recombinant MMP-9 (Homo sapiens, UniProt P14780); assay: In vitro MMP inhibition, IC50 determination (fluorogenic substrate I)
T1 construct: made in house; host or cells: MMP-9-transfected HT1080 cells (spent media)
Summary of the method: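 Reduction in fluorescence (328 nm excitation, 415 nm emission) from cleavage of 4 μM quenched peptide substrate I, measured at room temperature against inhibitor concentration, gave IC50. Enzyme: trypsin- or APMA-activated MMP-9 purified from transfected HT1080 medium; buffer 100 mM Tris, 100 mM NaCl, 10 mM CaCl2, pH 7.5.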

[2] = biological target: T2, Human recombinant MMP-1 (Homo sapiens, UniProt P03956); assay: as above
T2 construct: made in house; host or cells: MMP-1-transfected HT-1080 cells (spent media)
T2 sequence (P03956 100-469): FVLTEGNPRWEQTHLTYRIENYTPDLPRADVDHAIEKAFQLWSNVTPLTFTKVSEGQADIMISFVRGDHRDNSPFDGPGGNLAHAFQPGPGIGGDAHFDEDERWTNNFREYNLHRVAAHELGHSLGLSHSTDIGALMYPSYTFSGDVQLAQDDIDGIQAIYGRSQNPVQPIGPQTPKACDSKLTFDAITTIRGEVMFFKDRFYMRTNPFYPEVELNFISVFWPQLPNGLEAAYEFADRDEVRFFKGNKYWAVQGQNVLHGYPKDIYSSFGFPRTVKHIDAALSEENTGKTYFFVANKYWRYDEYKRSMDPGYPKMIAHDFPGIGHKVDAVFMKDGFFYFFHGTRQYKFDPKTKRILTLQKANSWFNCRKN
Summary of the method: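 Inhibitor dilutions were made in 100 mM Tris-HCl/100 mM NaCl/10 mM CaCl2 buffer, pH 7.5, and incubated at room temperature with activated proenzyme (from transfected HT-1080 media; APMA or trypsin) and 4 μM quenched methoxycoumarin peptide substrate. Loss of 415 nm fluorescence (328 nm excitation) against concentration gave IC50.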

[3] = biological target: T3, Human recombinant MMP-13 (Homo sapiens, UniProt P45452); assay: In vitro MMP inhibition, Ki determination (fluorogenic substrate II)
T3 construct: made in house; host or cells: baculovirus / insect cells
Protocol: Several hydroxamates and salts thereof were analyzed in in vitro assays to determine their ability to inhibit the MMP cleavage of peptide substrates. Inhibition (Ki) and IC50 constants were calculated from the assayed hydroxamate-MMP interactions.
Human recombinant MMP-1, MMP-2, MMP-9, MMP-13, and MMP-14 were used in this assay. All enzymes were prepared in Assignee's laboratories following usual laboratory procedures. Protocols for the preparation and use of these enzymes are available in the scientific literature. See, e.g., Enzyme Nomenclature (Academic Press, San Diego, Calif., 1992) (and the citations therein). See also, Frije et al., J. Biol. Chem., 26(24), 16766-73 (1994).
The expressed proenzyme was first purified over a heparin agarose column, and then over a chelating zinc chloride column. The proenzyme was then activated by APMA for use in the assay. Further details on baculovirus expression systems may be found in, for example, Luckow et al., J. Virol., 67, 4566-79 (1993). See also, O'Reilly et al, Baculovirus Expression Vectors: A Laboratory Manual (W. H. Freeman and Co., New York, N.Y., 1992). See also, King et al., The Baculovirus Expression System: A Laboratory Guide (Chapman & Hall, London, England, 1992).
All MMPs were activated using 4-aminophenylmercuric acetate (“APMA”, Sigma Chemical, St. Louis, Mo.) or trypsin. MMP-9 also was activated using human recombinant MMP-3 (purified in Assignee's laboratory following standard cloning and purification techniques).
Two fluorogenic, methoxycoumarin-containing polypeptide substrates were used in the MMP inhibition assays:
MCA-ArgProLeuGlyLeuDpaAlaArgGluArgNH2 (II)
Here, “Dpa” is 3-(2,4-dinitrophenyl)-L-2,3-diaminopropionyl group, and “MCA” is 7-methoxycoumarin-4-yl acetyl. Substrate (I) was purchased from Baychem (Redwood City, Calif.), and substrate II was prepared Assignee's laboratory. Substrate I was used in the IC50 determination assays, while substrate II was used in the Ki determination assays. In the absence of MMP inhibitory activity, either substrate is cleaved at the Gly-Leu peptide bond. This cleavage separates the highly fluorogenic peptide from the 2,4-dinitrophenyl quencher, thus resulting in increase of fluorescent intensity.
The stock solutions of the assayed hydroxamates (or salts thereof) were prepared in 1% dimethyl sulfoxide (DMSO). These stock solutions were diluted in Buffer A (100 mM Tris-HCl, 100 mM NaCl, 10 mM CaCl2, 0.05% polyoxyethylene 23 lauryl ether, pH 7.5) to obtain solutions with different hydroxamate concentrations, i.e., assay solutions with different concentrations of the assayed MMP inhibitory compound. The experiment controls contained the same amount of Buffer A/DMSO as the assayed sample, but contained no hydroxamate (or salt thereof).
The assays from which the Ki determinations were made were performed as follows. The assayed hydroxamate samples were incubated in separate wells of untreated white polystyrene plates (Nunc Nalgene International, Rochester, N.Y.), and analyzed on a Tecan SpectraFlour Plus plate reader. The excitation wavelength was 330 nm, and the emission wavelength—420 nm. All samples (assayed hydroxamates and controls) were incubated in separate plate wells at room temperature for 1 hr in the presence of 4 μM of MMP substrate (II). In the absence of MMP inhibitory activity, substrate II was cleaved at the Gly-Leu bond resulting in an increase of relative fluorescence. Inhibition was observed as a reduced rate of this increase in relative fluorescence. The various hydroxamates were analyzed using a single low enzyme concentration with a single substrate concentration fixed at or below the Km. This protocol is a modification of method by Knight et al., FEBS Lett., 296(3), 263-266 (1992). Apparent inhibitory constants were determined by non-linear regression of reaction velocity as a function of inhibitor and enzyme concentration using Morrison's equation, as described by Kuzmic, Anal. Biochem. 286, 45-50 (2000). […]

T1 sequence (P14780 107-707 limits assumed): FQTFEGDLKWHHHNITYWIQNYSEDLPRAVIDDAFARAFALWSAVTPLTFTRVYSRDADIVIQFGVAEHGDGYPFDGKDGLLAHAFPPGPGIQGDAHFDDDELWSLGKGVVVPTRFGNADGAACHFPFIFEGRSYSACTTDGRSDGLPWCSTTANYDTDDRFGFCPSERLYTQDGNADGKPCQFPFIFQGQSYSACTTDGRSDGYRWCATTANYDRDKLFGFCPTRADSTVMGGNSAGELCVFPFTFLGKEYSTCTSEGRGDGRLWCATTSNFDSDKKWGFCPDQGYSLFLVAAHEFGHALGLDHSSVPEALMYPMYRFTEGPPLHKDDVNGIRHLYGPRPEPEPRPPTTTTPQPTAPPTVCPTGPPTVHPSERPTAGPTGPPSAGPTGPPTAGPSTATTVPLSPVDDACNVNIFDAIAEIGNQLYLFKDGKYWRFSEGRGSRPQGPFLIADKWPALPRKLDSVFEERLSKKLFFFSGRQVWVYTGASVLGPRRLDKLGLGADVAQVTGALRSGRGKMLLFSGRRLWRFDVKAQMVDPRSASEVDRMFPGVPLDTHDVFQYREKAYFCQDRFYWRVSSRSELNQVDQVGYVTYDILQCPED

IC50 ([1]; value outside parenthesis) [nM] | IC50 ([2]; value outside parenthesis) [µM] | Ki ([3]; value in parenthesis) [nM] | IC50 ([1]; value outside parentheses) [nM] | IC50 ([2]; value outside parentheses) [µM] | Ki ([3]; value in parentheses) [nM] | SMILES
1980 | > 10 | 0.312 |  |  |  | O=C(NO)C1(S(=O)(=O)c2ccc(OCCc3cccc(-c4ccncc4)c3)cc2)CCOCC1 [Example 113]
 |  |  | 1030 | > 10 | 0.9 | N#Cc1ccc(-c2cccc(CCCOc3ccc(S(=O)(=O)C4(C(=O)NO)CCOCC4)cc3)c2)cc1 [Example 624]
 |  |  | 411 | > 10 | 6.54 | O=C(NO)C1(S(=O)(=O)c2ccc(OCCCc3cccc(-c4ccsc4)c3)cc2)CCOCC1 [Example 632]
 |  |  | 1370 | > 10 | 1.42 | O=C(NO)C1(S(=O)(=O)c2ccc(OCCCc3cc(-c4ccc(F)cc4F)cs3)cc2)CCOCC1 [Example 587]
2630 | > 10 | 20.3 |  |  |  | O=C(NO)C1(S(=O)(=O)c2ccc(OCCCc3cccc(-c4cccc(F)c4)c3)cc2)CCOCC1 [Example 161]
2880 | > 10 | 11.6 |  |  |  | O=C(NO)C1(S(=O)(=O)c2ccc(OCCCc3cccc(-c4ccccc4F)c3)cc2)CCOCC1 [Example 163]
2470 | > 10 | 4.01 |  |  |  | O=C(NO)C1(S(=O)(=O)c2ccc(OCCOc3cccc(-c4ccccc4)c3)cc2)CCOCC1 [Example 157]
 |  |  | 11.6 | > 10 | 0.24 | O=C(NCCOc1ccc(S(=O)(=O)C2(C(=O)NO)CCOCC2)cc1)c1cc2ccccc2[nH]1 [Example 599]
832 | > 10 | 0.137 |  |  |  | COc1ccc(/C(C#N)=C/CCCOc2ccc(S(=O)(=O)C3(C(=O)NO)CCN(C4CC4)CC3)cc2)cc1 [Example 233]
 |  |  | 1790 | > 10 | 9.34 | O=C(NO)C1(S(=O)(=O)c2ccc(OCCCc3cc(-c4ccc(OC(F)(F)F)cc4)cs3)cc2)CCOCC1 [Example 608]
22.5 | 4.41 | 0.127 |  |  |  | O=C(CCCOc1ccc(S(=O)(=O)C2(C(=O)NO)CCOCC2)cc1)Nc1ccc(OC(F)(F)F)cc1 [Example 250]
> 10000 | > 10 | 0.547 |  |  |  | Cc1cc(NC(=O)CCCOc2ccc(S(=O)(=O)C3(C(=O)NO)CCOCC3)cc2)ccc1OC(C)C [Example 290]

SMILES | IC50 ([1]; value outside parenthesis) [nM] | IC50 ([2]; value outside parenthesis) [µM] | Ki ([3]; value in parenthesis) [nM] | IC50 ([1]; value outside parentheses) [nM] | IC50 ([2]; value outside parentheses) [µM] | Ki ([3]; value in parentheses) [nM]
COCCN1CCC(C(=O)NO)(S(=O)(=O)c2ccc(OCCCc3nc(-c4ccc(OC(F)(F)F)cc4)no3)cc2)CC1 [Example 190] | 1740 | > 10 | 0.6 |  |  | 
